Data reported in US12552783B2, “Modulators of proteolysis and associated methods of use” (Arvinas Operations, Inc., priority 2018, dated 2026).

Target: KRas (Homo sapiens, UniProt P01116, G12C)
Assay: KRas degradation in SW1573 cells by Western blot, normalized to GAPDH (data of Table 14)
Assay type: cell-based
Settings: SW1573 cells
Experimental: Cell Lines, Antibodies, and Reagents. NCI-H2030 (CRL-5914) and SW1573 (CRL-2170) cells were purchased from ATCC. Both cell lines are homozygous for the G12C mutation in KRas. NCI-H2030 cells were cultured in RPMI-1640 medium containing 1% penicillin-streptomycin and 10% fetal bovine serum (FBS). SW1573 cells were cultured in DMEM containing 1% penicillin-streptomycin and 10% FBS. The KRas detection antibody (Cat. No. LS-C175665) was purchased from LifeSpan Biosciences and was used at a dilution of 1:2000. GAPDH was detected using an antibody purchased from Cell Signaling Technology (Cat. No. 5174) and was diluted 1:3000. Secondary anti-mouse and anti-rabbit detection antibodies were purchased from Cell Signaling Technology (Cat. Nos. 7076 and 7074, respectively).
Compound Treatment and Western Blotting of the Data of Table 14. Either NCI-H2030 or SW1573 cells were plated in 12-well plates and allowed to adhere overnight at 37° C. in an incubator containing 5% CO2. The following day, the medium was replaced with the appropriate medium lacking FBS to induce starvation. Cells were returned to the incubator for an additional 24 hours following media exchange. […] Cells were treated with VHL-based compounds for 24 hours and all other compounds for 72 hours. Following treatment, cells were lysed in RIPA buffer (Thermo Fisher Cat. No. 89900) containing phosphatase (Thermo Fisher Cat. No. 1861277) and protease (Thermo Fisher Cat. No. 78429) inhibitor cocktails. Lysates were cleared at 13,000 rpm for 15 minutes and supernatants were assayed for total protein concentration using the Pierce BCA assay system (Thermo Fisher Cat. No. 23225). For each sample, 10 μg total protein was resolved on a 12% Bis-Tris gel and then transferred to a nitrocellulose membrane. After blocking in 3% BSA in TBST (Tris-buffered Saline with 0.1% Tween-20) for 1 hour at room temperature, membranes were probed with the primary antibody (LS Bio Cat. No. LS-C175665) overnight at 4° C. After incubation with the secondary antibody, the following day membranes were visualized using the SuperSignal™ West Femto substrate (Thermo Fisher Cat. No. 34095). The KRas signal in each lane was normalized to GAPDH and percent degradation was either estimated as less than 25% by visual inspection (C in Table 13) or quantitated relative to the DMSO control lane using BIO-RAD Image Lab 5.2.1, and all data was plotted using GraphPad PRISM 6.07.
DC50 is the half-maximal degradation concentration—i.e., the concentration at which 50% degradation is observed. DMax is the maximum degradation efficacy is achieved—i.e., the maximal degradation observed) degradation data.

Row | Dmax [%] | Percent Degradation at Indicated Concentration (μM) (0.1 μM) | Percent Degradation at Indicated Concentration (μM) (0.3 μM) | Percent Degradation at Indicated Concentration (μM) (1 μM) | Percent Degradation at Indicated Concentration (μM) (3 μM) | Percent Degradation at Indicated Concentration (μM) (0.03 μM) | SMILES
1 | 35 to 70 | C (Percent Degradation: C ≤ 35) | C (Percent Degradation: C ≤ 35) | B (35 < B < 70) |  |  | C=CC(=O)N1CCN(c2nc(OC[C@@H]3C[C@@H](OCCOCCOCCOCCOc4ccc5c(c4)C(=O)N(C4CCC(=O)NC4=O)C5=O)CN3C)nc3c2CCN(c2cccc4ccccc24)C3)C[C@@H]1CC#N (stereo partly drawn) [compound 481, 2-((2S)-1-acryloyl-4-(2-(((2S,4R)-4-(2-(2-(2-(2-((2-(2,6-dioxopiperidin-3-yl)-1,3-dioxoisoindolin-5-yl)oxy)ethoxy)ethoxy)ethoxy)ethoxy)-1-methylpyrrolidin-2-yl)methoxy)-7-(naphthalen-1-yl)-5,6,7,8-tetrahydropyrido[3,4-d]dipyrimidin-4-yl)piperazin-2-yl)acetonitrile]
2 | ≥ 70 | B (35 < B < 70) | A (A > 70) | C (Percent Degradation: C ≤ 35) |  |  | C=CC(=O)N1CCN(c2nc(OC[C@@H]3C[C@@H](OCCOCCOCCOc4ccc5c(c4)C(=O)N(C4CCC(=O)NC4=O)C5=O)CN3C)nc3c2CCN(c2cccc4ccccc24)C3)C[C@@H]1CC#N (stereo partly drawn) [compound 504, 2-((2S)-1-acryloyl-4-(2-(((2S,4R)-4-(2-(2-(2-((2-(2,6-dioxopiperidin-3-yl)-1,3-dioxoisoindolin-5-yl)oxy)ethoxy)ethoxy)ethoxy)-1-methylpyrrolidin-2-yl)methoxy)-7-(naphthalen-1-yl)-5,6,7,8-tetrahydropyrido[3,4-d]pyrimidin-4-yl)piperazin-2-yl)acetonitrile]
3 |  |  | C (Percent Degradation: C ≤ 35) | C (Percent Degradation: C ≤ 35) | C (Percent Degradation: C ≤ 35) |  | CN1C[C@H](OCCOCCNc2cccc3c2C(=O)N(C2CCC(=O)NC2=O)C3=O)C[C@H]1COc1nc2c(c(N3CCN(C(N)=O)[C@@H](CC#N)C3)n1)CCN(c1cccc3ccccc13)C2 (stereo partly drawn) [compound 543, (2S)-2-(cyanomethyl)-4-(2-(((2S,4R)-4-(2-(2-((2-(2,6-dioxopiperidin-3-yl)-1,3-dioxoisoindolin-4-yl)amino)ethoxy)ethoxy)-1-methylpyrrolidin-2-yl)methoxy)-7-(naphthalen-1-yl)-5,6,7,8-tetrahydropyrido[3,4-d]pyrimidin-4-yl)piperazine-1-carboxamide]
4 |  | C (Percent Degradation: C ≤ 35) | C (Percent Degradation: C ≤ 35) | C (Percent Degradation: C ≤ 35) |  | C (Percent Degradation: C ≤ 35) | C=CC(=O)N1CCN(c2nc(OC[C@@H]3C[C@@H](OCCOCCOc4ccc5c(c4)C(=O)N(C4CCC(=O)NC4=O)C5=O)CN3C)nc3c2CCN(c2cccc4ccccc24)C3)C[C@@H]1CC#N (stereo partly drawn) [compound 503, 2-((2S)-1-acryloyl-4-(2-(((2S,4R)-4-(2-(2-((2-(2,6-dioxopiperidin-3-yl)-1,3-dioxoisoindolin-5-yl)oxy)ethoxy)ethoxy)-1-methylpyrrolidin-2-yl)methoxy)-7-(naphthalen-1-yl)-5,6,7,8-tetrahydropyrido[3,4-d]pyrimidin-4-yl)piperazin-2-yl)acetonitrile]
5 |  | C (Percent Degradation: C ≤ 35) | C (Percent Degradation: C ≤ 35) |  |  | C (Percent Degradation: C ≤ 35) | C=CC(=O)N1CCN(c2nc(O[C@H](C)CN3CCC(OCCOCCOCCOCCOCCOc4cc(C(C(=O)N5C[C@H](O)C[C@H]5C(=O)N[C@@H](C)c5ccc(-c6scnc6C)cc5)C(C)C)on4)CC3)nc3c(F)c(-c4cc(O)cc5ccccc45)c(Cl)cc23)CC1 (stereo in doubt) [compound 532, (2S,4R)-1-((2R)-2-(3-((14-((1-((2R)-2-((4-(4-acryloylpiperazin-1-yl)-6-chloro-8-fluoro-7-(3-hydroxynaphthalen-1-yl)quinazolin-2-yl)oxy)propyl)piperidin-4-yl)oxy)-3,6,9,12-tetraoxatetradecyl)oxy)isoxazol-5-yl)-3-methylbutanoyl)-4-hydroxy-N-((S)-1-(4-(4-methylthiazol-5-yl)phenyl)ethyl)pyrrolidine-2-carboxamide]
6 |  | C (Percent Degradation: C ≤ 35) | C (Percent Degradation: C ≤ 35) | C (Percent Degradation: C ≤ 35) |  |  | C=CC(=O)N1CCN(c2nc(O[C@H](C)CN3CCC(OCCOCCOCCOCCOc4ccc5c(c4)C(=O)N(C4CCC(=O)NC4=O)C5=O)CC3)nc3c(F)c(-c4cc(O)cc5ccccc45)c(Cl)cc23)CC1 (stereo partly shown) [compound 429]
7 |  | C (Percent Degradation: C ≤ 35) | C (Percent Degradation: C ≤ 35) | C (Percent Degradation: C ≤ 35) |  |  | C=CC(=O)N1CCN(c2nc(O[C@H](C)CN3CCC(OCCOCCOCCOc4cc(-c5scnc5C)ccc4CNC(=O)[C@@H]4C[C@@H](O)CN4C(=O)[C@H](c4cc(C)no4)C(C)C)CC3)nc3c2CCN(c2cc(O)cc4ccccc24)C3)CC1 [compound 441, (2S,4R)-N-(2-(2-(2-(2-((1-((R)-2-((4-(4-acryloylpiperazin-1-yl)-7-(3-hydroxynaphthalen-1-yl)-5,6,7,8-tetrahydropyrido[3,4-d]pyrimidin-2-yl)oxy)propyl)piperidin-4-yl)oxy)ethoxy)ethoxy)ethoxy)-4-(4-methylthiazol-5-yl)benzyl)-4-hydroxy-1-((S)-3-methyl-2-(3-methylisoxazol-5-yl)butanoyl)pyrrolidine-2-carboxamide]
8 | ≥ 70 | B (35 < B < 70) | A (A > 70) | C (Percent Degradation: C ≤ 35) |  |  | C=CC(=O)N1CCN(c2nc(OC[C@@H]3C[C@@H](OCCOCCOCCOCCNc4cccc5c4C(=O)N(C4CCC(=O)NC4=O)C5=O)CN3C)nc3c2CCN(c2cccc4ccccc24)C3)C[C@@H]1CC#N (stereo partly drawn) [compound 518, 2-((2S)-1-acryloyl-4-(2-(((2S,4R)-4-(2-(2-(2-(2-((2-(2,6-dioxopiperidin-3-yl)-1,3-dioxoisoindolin-4-yl)amino)ethoxy)ethoxy)ethoxy)ethoxy)-1-methylpyrrolidin-2-yl)methoxy)-7-(naphthalen-1-yl)-5,6,7,8-tetrahydropyrido[3,4-d]pyrimidin-4-yl)piperazin-2-yl)acetonitrile]
9 |  | C (Percent Degradation: C ≤ 35) | C (Percent Degradation: C ≤ 35) | C (Percent Degradation: C ≤ 35) |  |  | C=CC(=O)N1CCN(c2nc(O[C@H](C)CN3CCC(OCCOCCOCCOCCOc4cc(-c5scnc5C)ccc4CNC(=O)[C@@H]4C[C@@H](O)CN4C(=O)[C@@H](c4cc(C)no4)C(C)C)CC3)nc3c2CCN(c2cc(O)cc4ccccc24)C3)CC1 [compound 442]
10 |  | C (Percent Degradation: C ≤ 35) | C (Percent Degradation: C ≤ 35) | C (Percent Degradation: C ≤ 35) |  |  | C=CC(=O)N1CCN(c2nc(O[C@H](C)CN3CCC(OCCOCCOc4ccc5c(c4)C(=O)N(C4CCC(=O)NC4=O)C5=O)CC3)nc3c(F)c(-c4cc(O)cc5ccccc45)c(Cl)cc23)CC1 (stereo partly drawn) [compound 427, 5-(2-(2-((1-((2R)-2-((4-(4-acryloylpiperazin-1-yl)-6-chloro-8-fluoro-7-(3-hydroxynaphthalen-1-yl)quinazolin-2-yl)oxy)propyl)piperidin-4-yl)oxy)ethoxy)ethoxy)-2-(2,6-dioxopiperidin-3-yl)isoindoline-1,3-dione]
